Test systems include SNB-75 CNS; DU-145 prostate; SF-539 CNS; HOP-62 NSCLC; TK-10 renal; T-47D breast; U251 CNS; NCI-H23 lung; COLO 205 colon; SW-620 colon.
Holding throughout (assay): NCI-60 cell line screen, 48 h

Among the data in PubChem BioAssay (NCI) are TGI and GI50 values, retold here.

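Five concentrations, 48 hours, 96-well plates. GI50: concentration for 50% inhibition of growth. TGI: concentration producing complete growth inhibition.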

In the case of `O=C(CC(=O)Nc1ccccc1Cl)NNC(Sc1ccccc1)c1cc(N=Nc2ccc(Br)cc2)ccc1O` (stereo not given), the TGI with SNB-75 CNS was above 10 µM; in the assay on DU-145 prostate it was above 10 µM; with SF-539 CNS it was 3.8 µM; in the assay with HOP-62 NSCLC it was 8.67 µM; with TK-10 renal, 9.08 µM; with T-47D breast it was 9.57 µM. Besides, the TGI in the assay on U251 CNS is 8.26 µM; in the assay on NCI-H23 lung it was 7.39 µM; with COLO 205 colon, above 10 µM; in the assay with SW-620 colon it was 2.77 µM.

On to `O=C(CCC(=O)OCC1OC(O)(CC2OC(CO)C(O)C(O)C2O)C(O)C1O)OCc1ccccc1` (stereo not given), for which the TGI with SNB-75 CNS, with DU-145 prostate, with SF-539 CNS, in the assay on HOP-62 NSCLC, in the assay with TK-10 renal and in the assay with T-47D breast was above 100 µM each time. The TGI in the assay on U251 CNS, in the assay with NCI-H23 lung, in the assay with COLO 205 colon and with SW-620 colon was above 100 µM throughout.

On to `c1csc(-c2nnc(C34CC5CC(CC(C5)C3)C4)o2)c1`, for which the TGI was 75.8 µM in the assay with SNB-75 CNS; above 100 µM with DU-145 prostate; 40.1 µM with SF-539 CNS; above 100 µM with HOP-62 NSCLC; above 100 µM in the assay with TK-10 renal; above 100 µM in the assay on T-47D breast. In addition, the TGI with U251 CNS is above 100 µM; in the assay with NCI-H23 lung it was above 100 µM; in the assay with COLO 205 colon, 31.2 µM; with SW-620 colon it was above 100 µM.

Regarding `C=C(COC(=O)C(C)C)[C@H]1Oc2ccc(C(C)=O)cc2[C@@H]1OC(=O)C(C)C`, the TGI in the assay with SNB-75 CNS, with DU-145 prostate, in the assay with SF-539 CNS, in the assay on HOP-62 NSCLC, with TK-10 renal and in the assay on T-47D breast was above 100 µM each time. The TGI with U251 CNS, in the assay with NCI-H23 lung, in the assay on COLO 205 colon and in the assay on SW-620 colon was above 100 µM throughout.

With `Cc1nc(N)nc(N)c1N1CCN(Cc2ccccc2)CC1`, the TGI in the assay on SNB-75 CNS, with DU-145 prostate, with SF-539 CNS, with HOP-62 NSCLC, in the assay with TK-10 renal and with T-47D breast was above 100 µM in each case. Further, the TGI with U251 CNS, in the assay on NCI-H23 lung, with COLO 205 colon and with SW-620 colon was above 100 µM each time.

For the compound `C=C1[C@H](OCC(C)C)[C@@H](OC(=O)C(C)CC)[C@@H](O)C(C)(C)/C=C/[C@H](C)C(=O)[C@@]2(O)C[C@H](C)[C@H](O)[C@@H]2[C@H]1OC(=O)C(C)CC` (stereo not given in full), the TGI in the assay on SNB-75 CNS was above 18.7 µM; in the assay on DU-145 prostate it was above 20 µM; in the assay on SF-539 CNS it was above 14.9 µM; in the assay with HOP-62 NSCLC, above 10.5 µM; in the assay with TK-10 renal, above 19.3 µM; in the assay on T-47D breast it was above 20 µM. The TGI is above 20 µM with U251 CNS, above 15.8 µM with NCI-H23 lung, above 9.67 µM with COLO 205 colon and above 20 µM in the assay on SW-620 colon.

Take `COc1cccc(/C=N/n2c(Cc3ccc(Cl)cc3)n[nH]c2=O)c1`: the TGI was 25.3 µM in the assay with SNB-75 CNS; above 100 µM with DU-145 prostate; 32.6 µM in the assay on SF-539 CNS; 43.9 µM with HOP-62 NSCLC; above 100 µM with TK-10 renal; above 68.2 µM with T-47D breast. Also, the TGI in the assay on U251 CNS was 55.2 µM; with NCI-H23 lung, above 70.3 µM; in the assay on COLO 205 colon, above 100 µM; in the assay with SW-620 colon, above 100 µM.

Turning to `O=C(O)C(CO)NC(=O)C1C(C(=O)O)C(c2ccccc2[N+](=O)[O-])C=C(c2ccco2)N1c1ccncc1` (stereo not given), the TGI with SNB-75 CNS amounted to 22.3 µM; with DU-145 prostate, 23.6 µM; in the assay with SF-539 CNS, 3.64 µM; in the assay with HOP-62 NSCLC it was 25.2 µM; with TK-10 renal, 9.48 µM; in the assay on T-47D breast, 23.9 µM. The TGI in the assay with U251 CNS is 6.21 µM; with NCI-H23 lung, 19.9 µM; with COLO 205 colon, 12 µM; in the assay with SW-620 colon it was 3.79 µM.

For the compound `CC(C)(CN1CCCCC1)C(=O)/C=C/c1c(Cl)cccc1Cl`, the TGI in the assay with SNB-75 CNS is 2.38 µM; in the assay with DU-145 prostate, 2.44 µM; in the assay with SF-539 CNS it was 6.71 µM; with HOP-62 NSCLC, 4.03 µM; in the assay with TK-10 renal, 1.77 µM; in the assay on T-47D breast it was 1.44 µM. Moreover, the TGI with U251 CNS was 2.8 µM; with NCI-H23 lung, 2.84 µM; in the assay with COLO 205 colon it was 3.05 µM; with SW-620 colon, 2.29 µM.

As to `OCCNc1nc2c(N3CCCC3)nc(N3CCNCC3)nc2nc1NCc1ccccc1`, the TGI with SNB-75 CNS came to 26.8 µM; in the assay on DU-145 prostate it was 24.2 µM; in the assay with SF-539 CNS it was 32 µM; in the assay with HOP-62 NSCLC, 18.1 µM; in the assay on TK-10 renal, 28.7 µM; in the assay with T-47D breast it was 30.8 µM. Further, the TGI with U251 CNS was 23.3 µM; in the assay with NCI-H23 lung, 34.2 µM; in the assay with COLO 205 colon, 24.9 µM; with SW-620 colon, 42.4 µM.

For `COc1cc([C@@H]2c3cc4c(cc3[C@@H](Nc3ccc(NC(=O)c5cc(NC(=O)c6cc([N+](=O)[O-])cn6C)cn5C)cc3)[C@H]3COC(=O)[C@H]23)OCO4)cc(OC)c1O`, the TGI was 37 µM with SNB-75 CNS; 5.22 µM with DU-145 prostate; above 100 µM in the assay on SF-539 CNS; 14.4 µM in the assay on HOP-62 NSCLC; above 100 µM with TK-10 renal; above 62.8 µM in the assay with T-47D breast. Besides, the TGI with U251 CNS was 26.2 µM; in the assay on NCI-H23 lung, above 48.7 µM; in the assay with COLO 205 colon it was 17.8 µM; with SW-620 colon, above 62.5 µM.

`Cc1nn(-c2ccccc2)c2c1N=C(C(=O)O)CC(c1ccccc1)=N2`: the TGI in the assay on SNB-75 CNS, in the assay with DU-145 prostate, with SF-539 CNS, in the assay on HOP-62 NSCLC, with TK-10 renal and in the assay on T-47D breast was above 10 µM throughout. Further, the TGI in the assay on U251 CNS, in the assay with NCI-H23 lung, with COLO 205 colon and in the assay on SW-620 colon was above 10 µM in each case.

As to `O=C(NC(CO)CO)c1ccc2cc(C(=O)N3CC(CCl)c4ccc([N+](=O)[O-])cc43)[nH]c2c1` (stereo not given), the TGI with SNB-75 CNS is above 100 µM; in the assay with DU-145 prostate, above 100 µM; in the assay on SF-539 CNS it was above 100 µM; with HOP-62 NSCLC, above 100 µM; in the assay on TK-10 renal, above 100 µM; in the assay on T-47D breast it was 64.2 µM. Also, the TGI in the assay with U251 CNS, in the assay on NCI-H23 lung, with COLO 205 colon and in the assay on SW-620 colon was above 100 µM in each case.

Turning to `COC1CCC(n2c([C@@H]3CCCC(=O)N3c3ccc(F)c(F)c3)nc3cc(-c4c(C)noc4C)ccc32)CC1` (stereo not given in full), the GI50 in the assay on SNB-75 CNS was 0.0108 µM; in the assay on DU-145 prostate, 16.8 µM; with SF-539 CNS it was 9.79 µM; with HOP-62 NSCLC, 4.46 µM; in the assay on TK-10 renal, 2.46 µM; with T-47D breast, 2.03 µM. Also, the GI50 in the assay on U251 CNS is 10.2 µM; in the assay with NCI-H23 lung it was 13.3 µM; with COLO 205 colon, 2.16 µM; with SW-620 colon, 19.1 µM. Moreover, the TGI in the assay with SNB-75 CNS was 0.961 µM; with DU-145 prostate, 54.2 µM; in the assay with SF-539 CNS, 23 µM; in the assay on HOP-62 NSCLC it was above 100 µM; in the assay on TK-10 renal, 12.7 µM; in the assay on T-47D breast, 50.7 µM. Further, the TGI with U251 CNS was 23.8 µM; with NCI-H23 lung it was 40.5 µM; in the assay with COLO 205 colon, 17.8 µM; with SW-620 colon, above 100 µM.

As for `CC1=CC(=O)/C(=C/N2CCNC2=S)C(=O)O1`, the TGI in the assay with SNB-75 CNS, with DU-145 prostate, in the assay on SF-539 CNS, with HOP-62 NSCLC, in the assay on TK-10 renal and with T-47D breast was above 100 µM each time. Besides, the TGI in the assay on U251 CNS, in the assay with NCI-H23 lung, in the assay on COLO 205 colon and in the assay on SW-620 colon was above 100 µM throughout.

Consider `O=C1C=C(NCCc2cc(Br)c(O)c(Br)c2)C(=O)c2[nH]cnc21`, for which the TGI in the assay on SNB-75 CNS was 69.1 µM; with DU-145 prostate, above 100 µM; in the assay on SF-539 CNS, above 100 µM; with HOP-62 NSCLC it was above 100 µM; in the assay on TK-10 renal, above 100 µM; in the assay with T-47D breast it was 88.8 µM. In addition, the TGI with U251 CNS was above 100 µM; with NCI-H23 lung it was 50.8 µM; in the assay with COLO 205 colon it was above 100 µM; in the assay on SW-620 colon it was above 100 µM.

`Cc1ccnc2sc3ccccc3c(=O)c12`: the TGI in the assay with SNB-75 CNS is 63.2 µM; with DU-145 prostate, above 100 µM; in the assay on SF-539 CNS, above 100 µM; in the assay with HOP-62 NSCLC, above 100 µM; with TK-10 renal, 90.6 µM; in the assay on T-47D breast, above 100 µM. The TGI in the assay on U251 CNS, in the assay with NCI-H23 lung, with COLO 205 colon and in the assay with SW-620 colon was above 100 µM each time.

Consider `O=C1C(CN2CCCC2)CCCC1CN1CCCC1` (stereo not given), for which the TGI in the assay with SNB-75 CNS was 35.6 µM; in the assay with DU-145 prostate, 34.2 µM; in the assay on SF-539 CNS, 16.1 µM; in the assay with HOP-62 NSCLC it was above 71.1 µM; in the assay on TK-10 renal, 5.5 µM; with T-47D breast it was 6.96 µM. In addition, the TGI in the assay with U251 CNS came out at 41.3 µM; in the assay on NCI-H23 lung, 4.27 µM; in the assay on COLO 205 colon, 3.07 µM; in the assay on SW-620 colon, 0.32 µM.

`O=Cc1cc(O)c(O)c(/C=N/n2c3ccccc3c3ccccc32)c1`: the TGI with SNB-75 CNS was 9.76 µM; in the assay with DU-145 prostate, 49 µM; in the assay with SF-539 CNS it was 24.7 µM; in the assay with HOP-62 NSCLC, 28 µM; in the assay with TK-10 renal it was 82 µM; with T-47D breast it was 40.4 µM. Besides, the TGI was 45.5 µM in the assay on U251 CNS, 34.7 µM in the assay with NCI-H23 lung, 26.3 µM with COLO 205 colon and 44.7 µM in the assay with SW-620 colon.

Turning to `CC(C)C(/C=C/c1ccccc1)=N\NC(=S)NN`, the TGI with SNB-75 CNS, with DU-145 prostate, in the assay with SF-539 CNS, with HOP-62 NSCLC, in the assay on TK-10 renal and in the assay with T-47D breast was above 100 µM in each case. The TGI in the assay on U251 CNS, in the assay with NCI-H23 lung, in the assay on COLO 205 colon and in the assay with SW-620 colon was above 100 µM in each case.
